Source: article PMC10635799, “Analogs of FTY720 inhibit TRPM7 but not S1PRs and exert multimodal anti-inflammatory effects” (The Journal of General Physiology, 2023)
Read-outs that look alike come from different tables or passages of the source.

Columns and labels:
[1] = tested on: HeLa cells; test: LDH-release cytotoxicity assay; format: cell-based; settings: 24 h
Description: WT HeLa cells were plated at a density of 10,000 cells per well into a 96-well tissue culture microplate (3610; Costar). AAL-149, VPC01091.4, or vehicle at 0.1, 1, 5, 10, and 25 μM was added to cells with media for a final volume of 100 μl and incubated for 24 h. LDH release was quantified using a CyQUANT LDH Cytotoxicity Assay (C20300; Thermo Fisher Scientific) and a FlexStation 3 plate reader using SoftMax […] (Molecular Devices).

[2] = Whole-blood, brain and lung drug levels by LC-MS/MS in the sublethal LPS peritonitis model; format: in vivo; settings: for Kp at 4 h / concentration at 4 h: both sexes, C57BL/6J, mouse, intraperitoneal
Description: (§1) 12-wk-old WT C57BL/6J mice were purchased from Jackson Laboratory (Strain #000664). An equal number of male and female mice were randomly assigned to each treatment group. All studies were conducted according to a protocol approved by the University of Virginia Animal Care and Use Committee. Mice were socially housed with littermate controls and provided with free access to a standard chow diet and water. Baseline weights were taken <1 h prior to the experiment for individual dose calculations. For the sublethal model, mice were injected intraperitoneally with LPS (1 mg/kg), VPC01091.4 (30 mg/kg), both LPS and VPC01091.4, or vehicle alone (20% 2-hydroxypropyl-β-cyclodextrin in PBS). The volume injected was 200 μl and solutions were sterile-filtered (0.45 µm) prior to use. […] Mice were euthanized at 4 h, then blood was collected via cardiac puncture and anticoagulated with K2EDTA. […] The lungs were dissected, coarsely homogenized, and partitioned into separate samples for RNA extraction and mass spectrometry analysis. Samples to be used for RNA were stored at −20°C in RNAlater Stabilization Solution (AM7021; Thermo Fisher Scientific) while samples for use in mass spectrometry were flash-frozen in liquid nitrogen. Whole brains were physically dissected, coarsely homogenized, and stored for later processing as with the lung tissue. 10 μl of each whole blood sample was reserved for mass spectrometry analysis, 15 μl was used to obtain lymphocyte counts with a Hematology Analyzer (Heska Element HT5), and the remainder was used to produce plasma through centrifugation at 2,000 × g for 15 min at 4°C. Plasma cytokines were then measured using a multiplex mouse proinflammatory cytokine panel performed by the University of Virginia Flow Cytometry Core (RRID: SCR_017829). Cytokine values beyond the limit of detection (LOD) are reported as the LOD value. Tissue RNA was isolated from preserved samples using 30 min of automated homogenization at 30 Hz with 5-mm ball-bearings in RLT Plus Lysis Buffer (TissueLyser II; Qiagen); RNA was then isolated using a RNeasy Plus Micro Kit (74134; Qiagen). Whole-tissue cytokine expression changes were then measured using qRT-PCR as with ex vivo cell culture experiments. For the lethal dose model, mice were injected with LPS (25 mg/kg), both LPS and VPC01091.4, or vehicle alone (20% 2-hydroxypropyl-β-cyclodextrin in PBS). Symptoms were scored according to a standardized clinical score sheet that assessed conjunctivitis, lethargy, degradation in hair grooming behavior, stool changes, and facial grimace (Table 1). Mice that lost >20% of their starting body weight or received a clinical score of 8 or greater were euthanized.
The sample preparation method was adapted from that published by [Shaner et al. (2009)]. Specifically, homogenized tissue (100 μl) was added to a mixture of methanol and chloroform (2 ml, 3:1, LCMS grade) and incubated at 48°C for 16 h. The mixture was cooled to room temperature, an alcoholic KOH solution (200 μl, 1 M in LCMS-grade methanol) was added, and the mixture was further incubated at 37°C for 2 h. The samples were neutralized with glacial acetic acid (20 μl) and centrifuged at 4°C for 10 min at 10,000 × g. The supernatant fluid was transferred to a glass vial and dried under a stream of nitrogen. The material was dissolved in LCMS grade methanol (500 μl), vortexed, and centrifuged at 4°C for 10 min at 10,000 × g. The supernatant fluid was transferred to LC vials for analysis by LC-MS/MS.
Analyses were performed using a tandem quadrupole mass spectrometer (Xevo TQ-S micro; Waters) coupled to a UPLC (Waters Acquity h-class+) inlet equipped with a reverse phase C18 UPLC column (BEH C-18 1.7 µm bead size, 2.1 × 50 mm; Waters). The method used is a modification of that published by [Frej et al. (2015)]. Specifically, the LC flow rate was set at 0.4 ml/min and the column temperature was 60°C. […]

[3] = tested on: lymphocytes; set-up: method as in Brinkmann et al., 2002; Zhu et al., 2007; settings: ref Brinkmann et al., 2002; Zhu et al., 2007; cited from earlier work
[4] = tested on: LPS-induced endotoxemia in mice; test: Sublethal LPS-induced peritonitis (endotoxemia) mouse model; format: in vivo
Description: as §1

[5] = tested on: BV-2 microglia; test: LPS-induced cytokine expression in BV-2 microglia (qRT-PCR); format: cell-based, mouse; settings: 10 µM pretreatment, LPS 1 µg/ml for 3 h
Description: RAW 264.7 macrophages or BMDMs were seeded at a density of 250,000 cells per well into a 12-well tissue culture plate in 1 ml of media and left to incubate overnight. The indicated drug or vehicle control was added to each well, and the plate was agitated and left to incubate for 10 min. The cells were then treated with LPS (1 μg/ml) or an equivalent volume of PBS, agitated, and left to incubate for 3 h. Cells were washed with PBS and then RNA isolation was performed using RNeasy Plus Micro Kit (74134; Qiagen). cDNA was produced using GoScript Reverse Transcriptase ([…]; Promega) and a quantitative PCR was performed using SensiFast SYBR (98020; Bioline) and Bio-Rad CFX Connect thermocycler. Each datum represents an individual, biological replicate that is the mean of duplicate technical replicates. Fold-changes are all reported relative to untreated controls for each experiment and were calculated using the ΔΔCt method, with β2-microglobulin used as the housekeeping gene for each sample. The experiment was performed similarly with BV-2 microglia and alveolar macrophages, except that cells were plated at a density of 100,000 cells per well into a 24-well tissue culture plate with 1 ml of media per well.

[6] = LPS 1 mg/kg + 30 mg/kg i.p., 4 h, vs LPS
[7] = whole-brain qRT-PCR, LPS 1 mg/kg + 30 mg/kg i.p., 4 h, vs LPS

## CCCCCCCCc1ccc([C@@H]2CC[C@@](N)(CO)C2)cc1 [VPC01091.4, ((1S,3R)-1-amino-3-(4-octylphenyl)cyclopentyl)methanol]
[1]; 25 μM, compared with positive control of 100% cytotoxicity
  Cytotoxicity (LDH release): 4%
[1]; dosages up to 10 µM
  Cytotoxicity (LDH release): did not result in any significant cytotoxicity
[1]; each dose up to 25 µM
  Mean cytotoxicity (LDH release): < 5%
[2]; brain / whole blood, 30 mg/kg i.p., VPC4 + LPS group, read-out: Mean brain level relative to mean blood level
  Kp at 4 h: 9.35
[2]; brain / whole blood, 30 mg/kg, 30 mg/kg i.p., VPC4 group, read-out: Mean brain level relative to mean blood level
  Kp at 4 h: 8.97
[2]; brain, 30 mg/kg i.p., VPC4 + LPS group, read-out: Mean brain concentration
  concentration at 4 h: 162 µM
[2]; brain, 30 mg/kg i.p., VPC4 group, read-out: Mean brain concentration
  concentration at 4 h: 142 µM
[2]; lung / whole blood, 30 mg/kg i.p., VPC4 + LPS group, read-out: Mean lung level relative to mean blood level
  Kp at 4 h: 33.2
[2]; lung / whole blood, 30 mg/kg, 30 mg/kg i.p., VPC4 group, read-out: Mean lung level relative to mean blood level
  Kp at 4 h: 31.1
[2]; lung / whole blood, 30 mg/kg, mice that received VPC4, 30 mg/kg i.p., read-out: Lung levels relative to blood
  Kp at 4 h: 32
[2]; lung, 30 mg/kg i.p., VPC4 + LPS group, read-out: Mean lung concentration
  concentration at 4 h: 576 µM
[2]; lung, 30 mg/kg i.p., VPC4 group, read-out: Mean lung concentration
  concentration at 4 h: 490 µM
[2]; whole blood, 30 mg/kg i.p. with LPS 1 mg/kg, cotreatment group, read-out: Mean whole blood concentration
  concentration at 4 h: 17.4 µM
[2]; whole blood, 30 mg/kg i.p., drug-treated group, read-out: Mean whole blood concentration
  concentration at 4 h: 15.8 µM
[2]; mice that received VPC4, 30 mg/kg i.p., 4 h
  Brain levels relative to blood: approximately ninefold
[3]
  Lymphopenia when administered to mice: do not evoke lymphopenia
[4]; 30 mg/kg i.p.
  Tolerability in mice: well-tolerated
[4]; 30 mg/kg i.p., 4 h, between treatment groups
  Absolute lymphocyte counts: no significant differences
[4]; LPS 1 mg/kg + 30 mg/kg i.p., 4 h
  Plasma IL-10: higher levels
[4]; [6]
  Plasma IFNγ: significantly suppressed
  Plasma IL-1β: significantly suppressed
  Plasma TNFα: significantly suppressed
[4]; [7]
  Brain expression of CCL4: significantly suppressed
  Brain expression of IL-1β: significantly suppressed
  Brain expression of IL-6: significantly suppressed
  Brain expression of TNFα: significantly suppressed
[4]; whole-lung qRT-PCR, LPS 1 mg/kg + 30 mg/kg i.p., 4 h, vs LPS
  Lung expression of IL-6: non-significantly lower
[5]
  LPS-induced inflammatory cytokine expression: direct anti-inflammatory effects
